Test results from ChEMBL document CHEMBL5038598, “Design and Synthesis of Pyrrolo[2,3-d]pyrimidine-Derived Leucine-Rich Repeat Kinase 2 (LRRK2) Inhibitors Using a Checkpoint Kinase 1 (CHK1)-Derived Crystallographic Surrogate” (J Med Chem, 2021).
pIC50, pKi: −log10 of the molar value.

Columns and labels:
[1] = molecular target: T1, Leucine-rich repeat serine/threonine-protein kinase 2 (Homo sapiens, UniProt Q5S007); test: Inhibition of recombinant human LRRK2 WT using fluorescein-labeled LRRKtide as substrate in presence of ATP preincubated for 50 mins followed by anti-phospho-LRRKtide antibody addition and measured after 30 mins by TR-FRET based Lanthascreen kinase activity assay
[2] = molecular target: T2, Leucine-rich repeat serine/threonine-protein kinase 2 (Homo sapiens, UniProt Q5S007, G2019S); test: Inhibition of recombinant human GST tagged truncated LRRK2 G2019S mutant using fluorescein-labeled LRRKtide as substrate in presence of ATP preincubated for 50 mins followed by anti-phospho-LRRKtide antibody addition and measured after 30 mins by TR-FRET based Lanthascreen kinase activity assay
[3] = molecular target: T2, Leucine-rich repeat serine/threonine-protein kinase 2; test: Inhibition of LRRK2-pSer935 in LRRK2 G2019S mutant expressing human HEK293 cells and measured after 48 hrs by ICW assay; type: cell-based
[4] = molecular target: T1, Leucine-rich repeat serine/threonine-protein kinase 2; test: Inhibition of LRRK2-pSer935 in LRRK2 WT expressing human HEK293 cells and measured after 48 hrs by ICW assay; type: cell-based
[5] = Aqueous solubility of the compound; type: physicochemical; conditions: buffer
[6] = molecular target: T2, Leucine-rich repeat serine/threonine-protein kinase 2; test: Binding affinity to human GST tagged truncated LRRK2 G2019S mutant incubated for 2 hrs by TR-FRET based Lanthascreen kinase activity assay
[7] = molecular target: T1, Leucine-rich repeat serine/threonine-protein kinase 2; test: Binding affinity to human LRRK2 WT incubated for 2 hrs by TR-FRET based Lanthascreen kinase activity assay
[8] = molecular target: T3, NUAK family SNF1-like kinase 1 (Homo sapiens) (UniProt O60285); test: Inhibition of ARK5 (unknown origin) assessed as remaining activity using botin-anti-his and Lanthascreen Eu-streptavidin at 1 uM incubated for 2 hrs by TR-FRET based Lanthascreen kinase activity assay relative to control
T3 sequence (whole entry): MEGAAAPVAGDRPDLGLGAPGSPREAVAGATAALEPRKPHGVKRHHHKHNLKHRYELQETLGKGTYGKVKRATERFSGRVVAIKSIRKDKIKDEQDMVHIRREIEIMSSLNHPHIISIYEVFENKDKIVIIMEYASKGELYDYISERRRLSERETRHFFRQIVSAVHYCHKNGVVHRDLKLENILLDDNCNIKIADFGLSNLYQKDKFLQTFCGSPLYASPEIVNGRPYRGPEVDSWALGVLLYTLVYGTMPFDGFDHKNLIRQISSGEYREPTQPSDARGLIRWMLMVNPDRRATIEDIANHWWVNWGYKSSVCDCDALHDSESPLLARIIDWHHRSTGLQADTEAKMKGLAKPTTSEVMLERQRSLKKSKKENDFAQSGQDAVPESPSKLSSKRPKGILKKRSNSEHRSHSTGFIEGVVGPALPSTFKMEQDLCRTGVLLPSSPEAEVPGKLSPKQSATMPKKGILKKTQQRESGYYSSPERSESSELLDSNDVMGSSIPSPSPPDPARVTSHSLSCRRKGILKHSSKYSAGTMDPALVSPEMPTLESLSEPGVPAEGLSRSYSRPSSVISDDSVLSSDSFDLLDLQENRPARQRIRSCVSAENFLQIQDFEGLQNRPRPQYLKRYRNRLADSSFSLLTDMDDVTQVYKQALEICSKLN

[9] = molecular target: Proto-oncogene tyrosine-protein kinase receptor Ret (Homo sapiens) (UniProt P07949); test: Inhibition of RET (unknown origin) assessed as remaining activity using botin-anti-his and Lanthascreen Eu-streptavidin measured at 1 uM incubated for 2 hrs by TR-FRET based Lanthascreen kinase activity assay relative to control
Chain of Proto-oncogene tyrosine-protein kinase receptor Ret (Homo sapiens) (P07949 whole entry): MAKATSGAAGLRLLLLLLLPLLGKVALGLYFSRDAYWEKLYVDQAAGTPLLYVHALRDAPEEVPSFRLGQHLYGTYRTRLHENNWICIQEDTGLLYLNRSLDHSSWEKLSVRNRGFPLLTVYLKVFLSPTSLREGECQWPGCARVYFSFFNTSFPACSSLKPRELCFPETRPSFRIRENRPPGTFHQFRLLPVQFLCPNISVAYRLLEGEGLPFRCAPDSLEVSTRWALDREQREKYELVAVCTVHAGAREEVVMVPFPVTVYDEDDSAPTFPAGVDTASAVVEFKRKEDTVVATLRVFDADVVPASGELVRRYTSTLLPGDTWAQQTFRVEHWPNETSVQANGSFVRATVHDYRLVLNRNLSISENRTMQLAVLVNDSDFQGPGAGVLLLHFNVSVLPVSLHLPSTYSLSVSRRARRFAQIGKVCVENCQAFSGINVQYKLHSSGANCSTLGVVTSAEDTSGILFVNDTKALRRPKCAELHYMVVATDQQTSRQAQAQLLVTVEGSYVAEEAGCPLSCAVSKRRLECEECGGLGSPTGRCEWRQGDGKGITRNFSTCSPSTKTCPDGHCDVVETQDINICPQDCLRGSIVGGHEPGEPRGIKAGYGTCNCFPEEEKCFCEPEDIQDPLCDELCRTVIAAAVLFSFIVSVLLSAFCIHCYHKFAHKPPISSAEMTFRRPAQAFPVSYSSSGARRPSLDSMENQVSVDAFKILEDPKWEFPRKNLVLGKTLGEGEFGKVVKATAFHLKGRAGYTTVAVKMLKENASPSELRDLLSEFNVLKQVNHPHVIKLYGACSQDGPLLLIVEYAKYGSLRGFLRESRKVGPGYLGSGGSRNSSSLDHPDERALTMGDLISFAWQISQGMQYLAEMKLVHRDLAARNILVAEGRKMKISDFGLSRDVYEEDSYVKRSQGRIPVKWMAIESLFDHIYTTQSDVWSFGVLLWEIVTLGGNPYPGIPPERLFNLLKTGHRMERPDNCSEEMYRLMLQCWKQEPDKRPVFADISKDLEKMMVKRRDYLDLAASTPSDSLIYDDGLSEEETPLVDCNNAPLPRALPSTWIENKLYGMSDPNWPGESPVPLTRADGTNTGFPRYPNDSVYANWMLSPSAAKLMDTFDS

T1 sequence (Q5S007 whole entry, the tested form may be a part): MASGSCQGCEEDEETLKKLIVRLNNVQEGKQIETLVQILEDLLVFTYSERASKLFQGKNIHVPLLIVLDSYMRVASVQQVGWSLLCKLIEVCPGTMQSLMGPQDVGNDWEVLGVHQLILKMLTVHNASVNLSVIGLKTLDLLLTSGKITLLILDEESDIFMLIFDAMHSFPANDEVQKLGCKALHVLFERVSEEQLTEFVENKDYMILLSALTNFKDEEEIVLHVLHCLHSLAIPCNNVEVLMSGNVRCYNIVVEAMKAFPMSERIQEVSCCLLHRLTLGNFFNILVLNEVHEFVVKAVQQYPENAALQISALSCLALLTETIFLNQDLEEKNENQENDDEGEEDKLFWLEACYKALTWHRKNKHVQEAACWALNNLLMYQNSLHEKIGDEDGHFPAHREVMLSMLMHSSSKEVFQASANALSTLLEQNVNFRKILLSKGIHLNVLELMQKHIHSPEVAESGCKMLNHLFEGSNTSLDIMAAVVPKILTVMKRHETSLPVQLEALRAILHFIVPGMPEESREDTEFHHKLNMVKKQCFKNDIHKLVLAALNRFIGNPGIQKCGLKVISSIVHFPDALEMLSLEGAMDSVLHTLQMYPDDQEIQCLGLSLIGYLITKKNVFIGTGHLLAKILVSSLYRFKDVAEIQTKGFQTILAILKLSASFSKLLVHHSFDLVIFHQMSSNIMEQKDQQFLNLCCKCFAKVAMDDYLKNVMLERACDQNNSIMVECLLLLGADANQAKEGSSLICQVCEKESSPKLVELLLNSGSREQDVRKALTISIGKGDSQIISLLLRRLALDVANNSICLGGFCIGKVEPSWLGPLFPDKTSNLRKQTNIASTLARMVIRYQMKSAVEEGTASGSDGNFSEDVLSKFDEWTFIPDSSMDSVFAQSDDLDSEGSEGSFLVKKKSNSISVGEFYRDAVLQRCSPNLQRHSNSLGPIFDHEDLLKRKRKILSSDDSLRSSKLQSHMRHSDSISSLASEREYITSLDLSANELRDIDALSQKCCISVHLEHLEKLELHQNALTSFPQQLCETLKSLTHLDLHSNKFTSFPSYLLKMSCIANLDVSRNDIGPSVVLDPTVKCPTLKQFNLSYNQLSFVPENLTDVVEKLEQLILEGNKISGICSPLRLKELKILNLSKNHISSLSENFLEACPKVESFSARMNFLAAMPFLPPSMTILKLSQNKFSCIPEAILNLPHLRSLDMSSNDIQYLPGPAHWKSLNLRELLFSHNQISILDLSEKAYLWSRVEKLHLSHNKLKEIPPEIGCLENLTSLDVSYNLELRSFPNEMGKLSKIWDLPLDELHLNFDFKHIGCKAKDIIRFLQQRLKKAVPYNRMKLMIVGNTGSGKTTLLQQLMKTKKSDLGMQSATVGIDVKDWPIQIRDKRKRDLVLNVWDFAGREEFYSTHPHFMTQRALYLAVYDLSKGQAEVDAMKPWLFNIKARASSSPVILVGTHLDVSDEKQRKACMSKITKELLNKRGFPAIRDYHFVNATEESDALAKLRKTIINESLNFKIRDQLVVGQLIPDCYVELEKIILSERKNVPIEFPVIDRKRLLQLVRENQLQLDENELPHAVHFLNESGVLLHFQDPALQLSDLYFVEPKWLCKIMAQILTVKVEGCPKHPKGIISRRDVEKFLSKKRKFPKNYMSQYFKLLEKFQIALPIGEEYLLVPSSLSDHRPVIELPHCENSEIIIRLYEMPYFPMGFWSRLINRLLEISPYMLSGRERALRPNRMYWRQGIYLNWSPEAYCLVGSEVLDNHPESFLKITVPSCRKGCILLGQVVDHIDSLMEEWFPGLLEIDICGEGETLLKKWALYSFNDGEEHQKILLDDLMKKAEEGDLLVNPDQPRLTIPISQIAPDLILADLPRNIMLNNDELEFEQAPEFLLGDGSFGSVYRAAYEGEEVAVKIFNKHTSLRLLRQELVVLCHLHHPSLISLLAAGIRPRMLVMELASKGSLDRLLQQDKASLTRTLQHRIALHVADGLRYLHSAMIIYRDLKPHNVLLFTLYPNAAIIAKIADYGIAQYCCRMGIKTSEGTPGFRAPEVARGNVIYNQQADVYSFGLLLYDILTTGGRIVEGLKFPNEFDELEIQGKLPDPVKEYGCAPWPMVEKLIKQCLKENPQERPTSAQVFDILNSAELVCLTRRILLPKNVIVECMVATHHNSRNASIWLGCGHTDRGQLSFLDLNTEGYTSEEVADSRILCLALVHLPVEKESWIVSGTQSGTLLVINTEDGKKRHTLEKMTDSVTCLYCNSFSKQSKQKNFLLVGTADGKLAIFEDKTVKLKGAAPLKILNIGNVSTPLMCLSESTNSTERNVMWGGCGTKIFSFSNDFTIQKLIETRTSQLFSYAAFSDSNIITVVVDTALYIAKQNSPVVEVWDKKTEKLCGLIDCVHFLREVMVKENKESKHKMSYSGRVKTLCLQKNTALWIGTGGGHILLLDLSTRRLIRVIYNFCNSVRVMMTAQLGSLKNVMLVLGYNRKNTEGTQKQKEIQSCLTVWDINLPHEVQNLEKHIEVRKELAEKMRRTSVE
T2 sequence (Q5S007 whole entry G2019S, the tested form may be a part): as the sequence (Q5S007 whole entry, the tested form may be a part) above, with G2019S counted along it

pIC50 [1]	pIC50 [2]	pIC50 [3]	pIC50 [4]	solubility [5]	pKi [6]	pKi [7]	Activity [8] [%]	Activity [9] [%]	Structure (SMILES)
7.31	7.38	6.74	6.55						Cc1nn(CC(C)(C)O)cc1Nc1nc(N)c2c(C#N)c(N3CCC[C@H]3C)n(C)c2n1
				Insoluble	5.70	6.62			Cn1c(-n2cccc2)c(C#N)c2c(N)ncnc21
8.22	8.30				9.52	10.00	91	103	C[C@@H]1CCCN1c1c(C#N)c2c(N)nc(Nc3cnn(C)c3)nc2n1C
6.61	6.66				7.89	8.22			C[C@@H]1CCCN1c1c(C#N)c2c(N)nc(N)nc2n1C
	5.45				6.61	6.37			Cn1c(NCc2ccccc2)c(C#N)c2c(N)ncnc21
5.22	5.76				6.92	6.84			Cn1c(NCc2ccccc2F)c(C#N)c2c(N)ncnc21
4.84	5.07				6.23	6.46			Cn1c(N)c(C#N)c2c(N)ncnc21
	5.47				5.85				CN(C)c1ncnc2nc[nH]c12 [DIMETHYLADENINE]
7.42	7.52	6.92	6.72		8.70	9.00			Cc1nn(C)cc1Nc1nc(N)c2c(C#N)c(N3CCC[C@H]3C)n(C)c2n1
7.47	7.68	7.27	6.72						C[C@@H]1CCCN1c1c(C#N)c2c(N)nc(Nc3cn(C)nc3Cl)nc2n1C
	4.80				5.17				Nc1ncnc2nc[nH]c12 [ADENINE]
7.38	7.57				8.70	9.00	-5	8	Cc1n[nH]cc1Nc1nc(N)c2c(C#N)c(N3CCC[C@H]3C)n(C)c2n1
7.47	7.55				8.70	9.10	65	37	C[C@@H]1CCCN1c1c(C#N)c2c(N)nccc2n1C
					6.10	6.27			C[C@@H]1CCCN1c1c(C#N)c2c(N)nc(Nc3cnn(C)c3)cc2n1C
5.83	5.72				6.90	7.39			Cn1c(N2CCCC2)c(C#N)c2c(N)ncnc21
6.29	6.45	6.34	6.04						C[C@@H]1CCCN1c1c(C#N)c2c(N)nc(Nc3cn(C)nc3C(F)(F)F)nc2n1C
7.42	7.60	6.85	6.62						Cc1nn(C2COC2)cc1Nc1nc(N)c2c(C#N)c(N3CCC[C@H]3C)n(C)c2n1
7.82	7.96				9.15	9.40	93	64	C[C@@H]1CCCN1c1c(C#N)c2c(N)ncnc2n1C

pIC50 [1]	pIC50 [2]	pIC50 [3]	pIC50 [4]	solubility [5]	pKi [6]	pKi [7]	Activity [8] [%]	Activity [9] [%]	Structure (SMILES)
6.78	6.70				7.85	8.40			C[C@@H]1CCCN1c1[nH]c2ncnc(N)c2c1C#N
7.37	7.46	6.92	6.55						Cc1c(Nc2nc(N)c3c(C#N)c(N4CCC[C@H]4C)n(C)c3n2)cnn1CC(C)(C)O
5.17	5.19				6.36	6.79			C[C@@H]1CCCN1c1cc2c(N)ncnc2n1C
7.33	7.43	6.72	6.52						Cc1c(Nc2nc(N)c3c(C#N)c(N4CCC[C@H]4C)n(C)c3n2)cnn1C1COC1
5.90	6.32				7.48	7.52			Cn1c(-c2ccccc2)c(C#N)c2c(N)ncnc21
6.24	6.80				7.96	7.85			Cn1c(-c2cccc(F)c2F)c(C#N)c2c(N)ncnc21
5.68	5.89				7.12	7.20	-7	8	Cc1cn(C)nc1Nc1cc2c(c(N)n1)c(C#N)c(N1CCC[C@H]1C)n2C
5.34	5.42				6.59	6.95			CN(C)c1c(C#N)c2c(N)ncnc2n1C
7.72	7.92	7.19	6.85						Cc1nn(C2CCOC2)cc1Nc1nc(N)c2c(C#N)c(N3CCC[C@H]3C)n(C)c2n1 (mixture of isomers)
	4.57				4.95				Nc1ncnc2[nH]ncc12
6.63	6.69				7.89	8.22	3	27	C[C@@H]1CCCN1c1c(C#N)c2c(N)nc(Nc3ccn(C)n3)cc2n1C
8.22	8.22				9.40	9.70	97	101	C[C@@H]1CCCN1c1c(C#N)c2c(N)nc(Nc3cn[nH]c3)nc2n1C
5.50	5.65				6.81	7.11			C[C@@H]1CCCN1c1c(C(N)=O)c2c(N)ncnc2n1C
5.25	5.51				6.67	6.87			C[C@H]1CCCN1c1c(C#N)c2c(N)ncnc2n1C
7.36	7.55	6.74	6.59						Cc1nn(C2CCOC2)cc1Nc1nc(N)c2c(C#N)c(N3CCC[C@H]3C)n(C)c2n1 (single isomer, unassigned)
7.12	7.37	6.59	6.51		8.52	8.70			Cc1c(Nc2nc(N)c3c(C#N)c(N4CCC[C@H]4C)n(C)c3n2)cnn1C
7.24	7.29	6.60	6.39						Cc1nn(CC2(O)COC2)cc1Nc1nc(N)c2c(C#N)c(N3CCC[C@H]3C)n(C)c2n1
7.80	8.00	6.92	6.66						Cc1c(Nc2nc(N)c3c(C#N)c(N4CCC[C@H]4C)n(C)c3n2)cnn1CC1(O)COC1
